Like-named read-outs stand apart in the source and are kept apart here. Blank lines part the entries; values can stand above or below the compound they belong to.
What was measured:
[1] = target: T1, recombinant human core RAG1 (AA387-1011)/core RAG2 (AA1-387) in the presence of HMGB1 (Homo sapiens, UniProt P15918+P55895); assay: Biochemical RAG DNA cleavage assay (gel-based, dsDNA 12RSS/23RSS substrate); conditions: for IC50: 25 nM RAG1-RAG2, 575 nM HMGB1, 10 nM dsDNA, 5 mM MgCl2, 1 h 37°C, no serum; for Inhibitory activity against RAG1/RAG2 cleavage: clinically relevant / supratherapeutic concentrations
T1 construct: made in house; host or cells: RAG1/RAG2 co-expressed in Expi293F GnTI human cells; HMGB1 in E. coli BL21DE3
T1 sequence (P15918 387-1011): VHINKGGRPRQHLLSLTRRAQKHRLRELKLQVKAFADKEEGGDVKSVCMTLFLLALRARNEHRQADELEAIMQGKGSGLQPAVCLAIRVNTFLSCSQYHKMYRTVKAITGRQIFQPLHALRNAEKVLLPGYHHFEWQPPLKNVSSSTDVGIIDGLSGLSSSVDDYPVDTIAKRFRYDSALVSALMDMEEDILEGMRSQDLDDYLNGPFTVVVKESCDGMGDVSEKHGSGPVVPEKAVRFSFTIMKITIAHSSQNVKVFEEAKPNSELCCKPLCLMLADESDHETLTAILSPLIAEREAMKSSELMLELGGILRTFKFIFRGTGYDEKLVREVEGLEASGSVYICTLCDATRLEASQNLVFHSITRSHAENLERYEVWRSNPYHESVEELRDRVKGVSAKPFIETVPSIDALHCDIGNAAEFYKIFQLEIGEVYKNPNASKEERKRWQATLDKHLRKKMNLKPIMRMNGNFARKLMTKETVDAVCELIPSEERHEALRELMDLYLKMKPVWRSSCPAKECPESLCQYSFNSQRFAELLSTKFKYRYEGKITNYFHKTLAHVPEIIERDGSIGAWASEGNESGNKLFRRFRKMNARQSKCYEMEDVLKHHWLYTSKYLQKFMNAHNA
T1 sequence (P55895 1-387): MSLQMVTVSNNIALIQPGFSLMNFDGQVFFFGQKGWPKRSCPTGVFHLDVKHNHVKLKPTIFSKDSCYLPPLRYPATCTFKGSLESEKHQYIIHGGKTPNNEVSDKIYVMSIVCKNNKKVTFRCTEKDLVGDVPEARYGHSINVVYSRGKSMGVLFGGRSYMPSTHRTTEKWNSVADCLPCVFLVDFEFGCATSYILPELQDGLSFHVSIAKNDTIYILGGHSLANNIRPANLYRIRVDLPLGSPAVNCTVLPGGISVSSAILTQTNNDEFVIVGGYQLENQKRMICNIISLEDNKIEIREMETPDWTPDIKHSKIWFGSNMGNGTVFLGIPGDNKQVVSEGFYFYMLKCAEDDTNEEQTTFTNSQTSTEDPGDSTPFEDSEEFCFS
Text: To directly observe the potential inhibition of RAG1/RAG2, we measured the effect of INSTIs on DNA cleavage by RAG1/RAG2 in the presence of HMGB1. This biochemical system utilizes pre-assembled recombinant human core RAG1 (AA387-1011)/core RAG2 (AA1-387) in the presence of excess truncated HMGB1 (AA1-163) and a linear dsDNA RSS substrate, using gel electrophoresis and a fluorescent dye to monitor cleavage products (Fig. 2A) ([24]). The dsDNA RSS substrate, containing both the 12RSS and 23RSS, was designed to have the different cleavage products resolved via gel electrophoresis. RAG1/RAG2 can singly cleave either the 12RSS or the 23RSS, or both, leading to potentially five different products in the reaction (Fig. 2B). HMGB1 orients RAG1/RAG2 for proper binding to the RSS substrate ([16]). We quantified the activity of RAG as the percentage of substrate conversion to a specific cleaved product, as separated by agarose gel electrophoresis and determined by the DNA-binding fluorescent dye. With the 569-bp substrate, a single cleavage of the 12RSS results in a 492-bp dsDNA and a 77-bp hairpin. Cleavage of the 23RSS alone produces a 433-bp dsDNA and a 136-bp hairpin. Successful cleavage of both RSSs results in a 356-bp dsDNA and both of the 77- and 136-bp hairpins. For the RAG activity analysis, we measured the amount of double cleaved product (356 bp) in relation to the amount of substrate (569 bp) at the end of the reaction. The optimal concentrations of RAG1/RAG2, HMGB1, and MgCl2 were determined through titration (Fig. S2). Because there is no direct RAG1/RAG2 inhibitor previously characterized, we used suramin, a polyanionic compound commonly used as a non-specific inhibitor for DNA/RNA binding or processing proteins as a control for inhibition ([25], [26]).
Prior to the cleavage assay, compounds at the designated concentrations were spotted into 96-well plates using the Tecan Digital D300e (Tecan, Mannedorf, Switzerland). RAG1/RAG2 was incubated with HMGB1 and MgCl2 on ice for at least 15 min in a reaction buffer (25-mM 3-(N-morpholino)propanesulfonic acid [MOPS], pH 7.0, 50-mM KCl, and 2-mM DTT). After the initial incubation, the enzyme solution was added to the compound plates and incubated for an additional 15 min at room temperature. dsDNA substrate in reaction buffer was added to the plates to initiate the reaction. The final conditions of the reaction are 25-nM RAG1–RAG2 complex, 575-nM HMGB1, 10-nM dsDNA substrate, and 5-mM MgCl2. After 1 h at 37°C, reactions were quenched by the addition of final concentrations of 0.19% SDS, 45.5-µg/mL Proteinase K, and 60-mM EDTA.
Glycerol was added to a final concentration of 7.6% in each sample, and samples were loaded onto non-denaturing 6% Tris–borate–EDTA (TBE) gels in 1× TBE buffer. The samples were run at 100 V for 1.5 h, and gels were stained with 1× SYBR Gold in 1× TBE for 20 min. The stained gels were imaged with an Amersham Typhoon Biomolecular Imager.
The gel images were analyzed using ImageQuant software (Cytiva). The densities of the 569-bp-length substrate and fully cleaved 356-bp-length product were quantified. The product density was divided by the sum of substrate and product bands to obtain a percent product value. These calculated values were subtracted from a negative control (pre-quenched reaction where EDTA was added before reaction was initiated) and then normalized to the DMSO-treated control. The normalized data were plotted against concentration using GraphPad Prism (version 9.3; GraphPad Software, San Diego, CA, USA).

[2] = cited from earlier work; for Human clinical free Cmax: Cmax corrected for protein binding
[3] = 5-day cytotoxicity assay with Cell Titer Glo readout, Expi293F; format: cell-based; conditions: human
Text: Supplemental Table S2. CC50 values for INSTIs in 5- day cytotoxicity as says with Cell Titer
Expi293F GALPC3 GALHEP HUH7 MRC5 MT4 PBMC PBMC
Kidney Prostate Hepatoma Hepatoma Lung T-cell line Primary Primary
(embryonic) cancer cell cell line cell line fibroblast cells

[4] = clinical concentrations; cited from earlier work
RAG1/RAG2 = conditions: cited from earlier work; for Effect on RAG binding or cleavage at the RSS: EVG 50–200 μM, RAL up to 200 µM

Compound: O=C(NCc1c(F)cc(F)cc1F)c1cn2c(c(O)c1=O)C(=O)N1[C@H]3CC[C@H](C3)O[C@@H]1C2 [BIC, bictegravir]
IC50 [1]: > 0.5 µM
Inhibitory activity against RAG1/RAG2 cleavage [1]: do not show inhibitory activity
Human clinical free Cmax [2]: 34 nM
CC50 at 5 day [3]: 46 µM

Compound: C[C@H]1CO[C@@H]2Cn3cc(C(=O)NCc4ccc(F)cc4F)c(=O)c(O)c3C(=O)N12 [CAB, cabotegravir]
IC50 [1]: > 0.5 µM
Inhibitory activity against RAG1/RAG2 cleavage [1]: do not show inhibitory activity
Human clinical free Cmax [2]: 25 nM
CC50 at 5 day [3]: > 100 µM

Compound: C[C@@H]1CCO[C@H]2Cn3cc(C(=O)NCc4ccc(F)cc4F)c(=O)c(O)c3C(=O)N12 [DTG, dolutegravir]
IC50 [1]: > 0.5 µM
Human clinical free Cmax [2]: 58 nM
Cmax ([2]; at clinical dosage of Table 1 (EVG with 150 mg cobicistat)): 8300 nM
Free drug fraction [4]: 0.70%
CC50 at 5 day [3]: 53.6 µM
Decrease of DNA binding and cleavage by RAG1 (RAG1/RAG2; DTG 200–500 μM): 50%–75%

IC50 [1]: > 0.5 µM
Inhibitory activity against RAG1/RAG2 cleavage [1]: do not show inhibitory activity
Compound: COc1cc2c(cc1Cc1cccc(Cl)c1F)c(=O)c(C(=O)O)cn2[C@H](CO)C(C)C [EVG, elvitegravir]
Human clinical free Cmax [2]: 22 nM
Free drug fraction [4]: 0.48%
CC50 at 5 day [3]: 32.5 µM
Effect on RAG binding or cleavage at the RSS (RAG1/RAG2): inhibition of RAG cleavage at the RSS

Compound: Cc1nnc(C(=O)NC(C)(C)c2nc(C(=O)NCc3ccc(F)cc3)c(O)c(=O)n2C)o1 [RAL, raltegravir]
IC50 [1]: > 10 µM
Inhibitory activity against RAG1/RAG2 cleavage [1]: do not show inhibitory activity
CC50 at 5 day ([3]; Expi293F, 5-day, Cell Titer Glo, read-out: CC50): > 100 µM
Effect on RAG binding or cleavage at the RSS (RAG1/RAG2): no effect on binding or cleavage

Compound: O=C(/C=C(\O)c1nnn[nH]1)c1c[nH]c2ccc(Cl)cc12 [p8, 5-CITEP]
IC50 [1]: 58.2 ± 5.6 µM
CC50 at 5 day [3]: > 100 µM

— publication PMC11705955, “Lack of activity of HIV-1 integrase strand-transfer inhibitors on recombinase activating gene (RAG) activity at clinically relevant concentrations” (Microbiology Spectrum, 2024)
